Test [1] relates to JHH7 hepatocellular carcinoma cells. Nature of the test: Methylene Blue Staining proliferation assay (MBS), JHH7. The format is cell-based. The procedure: (§1) The effect of compounds on cell proliferation is assessed using HuH-7 hepatocellular carcinoma cells obtained from the Japanese Collection of Research Bioresources Cell Bank (Cat#JCRB0403) and cultured in the vendor-recommended medium (DMEM high glucose (Amimed Cat#1-26F01-I), 10% foetal calf serum (Invitrogen Cat#16140-071), 1 mM sodium pyruvate (Amimed Cat#5-60F00-H), 1× Penicillin/Streptomycin (Amimed Cat#4-01F00-H)) at 37° C. in a humidified 5% CO2 incubator. Specifically, 5000 cells/well were seeded in 96-well tissue culture plates (TPP Cat#92696) in a total media volume of 100 μl/well and increasing compound dilutions or DMSO were added 24 hours thereafter in triplicates. 72 hours after compound addition, cells were fixed by adding 25 μL/well of 20% glutaraldehyde (Sigma Aldrich Cat#G400-4) and incubated for 10 minutes at room temperature. Cells were washed three times with H2O, 200 μL/well and stained with 100 μL/well 0.05% methylene blue (ABCR GmbH Cat#AB117904) for 10 minutes at room temperature. Cells were washed 3 times with H2O, 200 μL/well and then lysed by adding 200 μL/well of 3% HCl (Fluka Cat#84422) for 30 minutes at room temperature with shaking. Optical density was measured at A650 nm.
(§2) The effect of compounds on cell proliferation using Hep 3B2.1-7 hepatocellular carcinoma cells, FU97 gastric cancer cells, JHH7 hepatocellular carcinoma cells or JHH6 hepatocellular carcinoma cells is assessed as above. Hep 3B2.1-7, FU97, JHH7 or JHH6 are obtained from the Japanese Collection of Research Bioresources Cell Bank. Hep 3B2.1-7 cells are cultured in EMEM+10% FCS+1 mM Na pyruvate+2 mM L-glutamine and 2000 cells/well are seeded for the proliferation assay. FU97 cells are cultured in DMEM high glucose+10% FCS+1 mM Na pyruvate+4 mM L-glutamine+1×ITS and 2000 cells/well are seeded for the proliferation assay. JHH6 and JHH7 cells are cultured in William's E+10% FCS+2 mM L-glutamine and 3000 cells are seeded for the proliferation assay.

Test [2] has as its system HuH-7 hepatocellular carcinoma cells. The test is described as follows: Methylene Blue Staining proliferation assay (MBS), HuH-7. The settings on record: Homo sapiens, HuH-7 cells, 72 hours after compound addition, read-out: HUH7 proliferation (nM) MBS. The format is cell-based. The procedure:
Methylene Blue Staining Proliferation Assay (MBS):
(§3) 72 hours after compound addition, cells were fixed by adding 25 μL/well of 20% glutaraldehyde (Sigma Aldrich Cat#G400-4) and incubated for 10 minutes at room temperature. Cells were washed three times with H2O, 200 μL/well and stained with 100 μL/well 0.05% methylene blue (ABCR GmbH Cat#AB117904) for 10 minutes at room temperature. […] Optical density was measured at A650 nm.

The test system is the same in test [3]. The test is described as follows: CellTiter Glo (CTG) assay, HuH-7. The settings on record: Homo sapiens, Huh-7, 72 h, read-out: HUH7 proliferation (nM) CTG.
Experimental: CellTiter Glo (CTG) Assay:
Compound-mediated suppression of cell proliferation/viability is assessed by quantification of cellular ATP levels using the CellTiter-Glo (CTG) reagent (Promega, Cat#G7573). […] For data analysis, the assay background value determined in wells containing medium, but no cells, is subtracted from all data points. […] The effect of a particular test compound concentration on cell proliferation/viability is expressed as percentage of the background- and day 0-corrected luminescence reading obtained for cells treated with vehicle only (DMSO, 0.1% f.c.), which is set as 100%, whereas the luminescence reading for wells containing medium only, but no cells, is set as −100%. Compound concentrations leading to half-maximal growth inhibition (GI50) are determined using standard four parameter curve fitting (XLfit 5.2., IDBS, UK).
For test [4], the system named is FU97 gastric cancer cells. The test is described as follows: Methylene Blue Staining proliferation assay (MBS), FU97. The format is cell-based. As to the method: as §1, §2
In test [5] the test system is Hep 3B2.1-7 hepatocellular carcinoma cells. The test is described as follows: Methylene Blue Staining proliferation assay (MBS), Hep 3B2.1-7. The class given is cell-based. The conditions noted are these: Homo sapiens, Hep3B, Hep 3B2.1-7 cells. As to the method:
as §3, §2

As for `N#Cc1ccc(NC(=O)N2CCCc3cc(CO)c(C=O)nc32)nc1` [Example 27, N-(5-cyanopyridin-2-yl)-7-formyl-6-(hydroxymethyl)-3,4-dihydro-1,8-naphthyridine-1(2H)-carboxamide], in test [1], the IC50 was above 3000 nM.
For `COCCOc1cc(NC(=O)N2CCCc3cc(CO)c(C=O)nc32)ncc1C#N` [Example 39, N-(5-cyano-4-(2-methoxyethoxy)pyridin-2-yl)-7-formyl-6-(hydroxymethyl)-3,4-dihydro-1,8-naphthyridine-1(2H)-carboxamide], the IC50 was 123 nM in test [2], above 3000 nM in test [1] and 569 nM in test [3].
With `N#Cc1cnc(NC(=O)N2CCCc3cc(CO)c(C=O)nc32)cc1O[C@H]1CCOC1` [Example 50, (S)—N-(5-cyano-4-((tetrahydrofuran-3-yl)oxy)pyridin-2-yl)-7-formyl-6-(hydroxymethyl)-3,4-dihydro-1,8-naphthyridine-1(2H)-carboxamide], the IC50 in test [2] stood at 270 nM; in test [4], 234 nM; in test [1], 484 nM.
The molecule `COCCOc1cc(NC(=O)N2CCCc3cc(C(F)F)c(C=O)nc32)ncc1C#N` [Example 63, N-(5-cyano-4-(2-methoxyethoxy)pyridin-2-yl)-6-(difluoromethyl)-7-formyl-3,4-dihydro-1,8-naphthyridine-1(2H)-carboxamide] came in with an IC50 in test [1] above 3000 nM.
With `CC(=O)N(C)Cc1cc2c(nc1C=O)N(C(=O)Nc1ccc(C#N)cn1)CCC2` [Example 68, N-(5-cyanopyridin-2-yl)-7-formyl-6-((N-methylacetamido)methyl)-3,4-dihydro-1,8-naphthyridine-1(2H)-carboxamide], the IC50 in test [5] and in test [1] was above 3000 nM each time.
On to `COCCNc1cc(NC(=O)N2CCCc3cc(CO)c(C=O)nc32)ncc1C#N` [Example 80, N-(5-cyano-4-((2-methoxyethyl)amino)pyridin-2-yl)-7-formyl-6-(hydroxymethyl)-3,4-dihydro-1,8-naphthyridine-1(2H)-carboxamide], for which the IC50 in test [4] turned out to be 96 nM; in test [1], 150 nM; in test [3], 168 nM.
For `COCCNc1cc(NC(=O)N2CCCc3cc(CN4CCN(C)CC4=O)c(C=O)nc32)ncc1C#N` [Example 83, N-(5-cyano-4-((2-methoxyethyl)amino)pyridin-2-yl)-7-formyl-6-((4-methyl-2-oxopiperazin-1-yl)methyl)-3,4-dihydro-1,8-naphthyridine-1(2H)-carboxamide], the IC50 in test [5] is 1 nM; in test [2] it was 12 nM; in test [4] it was 23 nM; in test [1], 9 nM; in test [3], 60.9 nM.
As to `CC(C)Oc1cc(NC(=O)N2CCCc3cc(CN4CCN(C)CC4=O)c(C=O)nc32)ncc1C#N` [Example 92, N-(5-cyano-4-isopropoxypyridin-2-yl)-7-formyl-6-((4-methyl-2-oxopiperazin-1-yl)methyl)-3,4-dihydro-1,8-naphthyridine-1(2H)-carboxamide], the IC50 in test [3] worked out at 38 nM.
`COCCOc1cc(NC(=O)N2CCCc3cc(CN4CCN(C)CC4=O)c(C=O)nc32)ncc1C#N` [Example 101, N-(5-cyano-4-(2-methoxyethoxy)pyridin-2-yl)-7-formyl-6-((4-methyl-2-oxopiperazin-1-yl)methyl)-3,4-dihydro-1,8-naphthyridine-1(2H)-carboxamide]: the IC50 in test [2] was found to be 82 nM; in test [3], 142 nM.
Turning to `COC[C@@H](C)Oc1cc(NC(=O)N2CCCc3cc(CN4CCN(C)CC4=O)c(C=O)nc32)ncc1C#N` [Example 205, (R)—N-(5-cyano-4-((1-methoxypropan-2-yl)oxy)pyridin-2-yl)-7-formyl-6-((4-methyl-2-oxopiperazin-1-yl)methyl)-3,4-dihydro-1,8-naphthyridine-1(2H)-carboxamide], the IC50 was 5 nM in test [5] and 17.8 nM in test [3].

The values above are taken from patent US10507201B2, “Use of ring-fused bicyclic pyridyl derivatives as FGFR4 inhibitors” (NOVARTIS AG, priority 2014, dated 2019).
